# In US10144715B2, “Piperazine derivatives as liver X receptor modulators” (priority 2014, dated 2018):
# Like-named read-outs stand apart in the source and are kept apart here.
# Legend:
# LXR α LBD protein [1] = molecular target: T1, LXR α LBD protein (Homo sapiens (Human), UniProt Q13133); test: Human LXRα coactivator recruitment FRET assay, agonist mode; assay type: biochemical; conditions: agonist mode
# Protocol: Two μL of the DMSO solutions were transferred to the plate and 38 μL of 10 nM LXRα-LBD or LXRβ-LBD (2×) were added immediately to the wells. The plate was shaken for 5 min at rt on an orbital micro shaker (DPC MicroMix® 5), after which 40 μL of 200 nM fluorescein-SRC2-3 peptide and 20 nM Terbium-anti-GST-antibody (Cat# PV3550, Life Technologies, Grand Island, N.Y.) solution (4×) were added to all. The plate was sealed and shaken for 2 min at rt, and incubated at rt for 2 h without agitation. […] The delay and window times were set at 100 and 200 microseconds, respectively. […] The percent control vs. compound concentration data were fit into a four-parameter model, and EC50 values were calculated from the fit as the concentrations corresponding to the inflection points on the concentration-response curves.
# [2] = molecular target: Gal4 DNA binding domain fused to the LBD of LXRα in HEK293 cells (Homo sapiens (Human), UniProt Q13133); test: LXR luciferase transcriptional reporter gene assay, agonist mode, LXRα; assay type: cell-based; conditions: for EC50: read-out: Cell LXRα EC50
# Sequence of Gal4 DNA binding domain fused to the LBD of LXRα in HEK293 cells (Q13133 209-447): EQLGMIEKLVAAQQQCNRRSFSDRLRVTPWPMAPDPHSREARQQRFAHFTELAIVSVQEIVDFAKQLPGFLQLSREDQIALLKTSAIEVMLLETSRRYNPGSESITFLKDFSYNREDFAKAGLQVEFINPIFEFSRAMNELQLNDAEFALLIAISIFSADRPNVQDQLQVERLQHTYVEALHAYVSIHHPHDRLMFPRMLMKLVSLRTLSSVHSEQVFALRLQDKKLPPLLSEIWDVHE
# [3] = molecular target: Gal4 DNA binding domain fused to the LBD of LXRβ in HEK293 cells (Homo sapiens (Human), UniProt P55055); test: cell-based
# Sequence of Gal4 DNA binding domain fused to the LBD of LXRβ in HEK293 cells (P55055 222-460 limits assumed): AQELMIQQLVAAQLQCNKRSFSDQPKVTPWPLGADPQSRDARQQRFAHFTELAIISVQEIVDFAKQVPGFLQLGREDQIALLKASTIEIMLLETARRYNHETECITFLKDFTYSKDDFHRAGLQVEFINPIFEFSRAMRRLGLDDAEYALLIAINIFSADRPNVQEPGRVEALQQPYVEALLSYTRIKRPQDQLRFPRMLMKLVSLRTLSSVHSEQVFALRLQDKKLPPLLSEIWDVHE
# LXR α LBD protein [4] = molecular target: T1, LXR α LBD protein; test: LXR α radioligand binding assay (SPA, competition with [3H]TO901317); conditions: read-out: LXRα Binding Ki
# LXR β LBD protein = LXR β LBD protein (Homo sapiens (Human), UniProt P55055); test: biochemical; assay type: binding
# Sequence of LXR β LBD protein (P55055 222-460 limits assumed): as above
# [5] = Biological Test Example 2, agonist mode
# T1 sequence (Q13133 209-447): as the sequence (Q13133 209-447) above
Compound,EC50 (LXR α LBD protein [1]),FRET LXRα efficacy (LXR α LBD protein [1]),EC50 ([2]; agonist mode),Cell LXRα efficacy [2],EC50 [2],EC50 [3],Ki (LXR α LBD protein [4]),Ki (LXR β LBD protein; read-out: LXRβ Binding Ki),further results
"CS(=O)(=O)c1cccc(N2CCN(c3ccc(C(F)(F)F)cn3)[C@@H](c3ccccc3)C2)c1 [7-40, (S)-4-(3-(methylsulfonyl)phenyl)-2-phenyl-1-(5-(trifluoromethyl)pyridin-2-yl)piperazine]",45100 nM,70%,> 20000 nM,–,–,–,–,–,–
"Cc1nc(C(F)(F)F)ccc1CN1CCN(c2cccc(S(C)(=O)=O)c2)CC1c1ccccc1 (stereo not drawn) [46-47, 1-((2-methyl-6-(trifluoromethyl)pyridin-3-yl)methyl)-4-(3-(methylsulfonyl)phenyl)-2-phenylpiperazine]",–,51%,–,–,–,–,–,–,–
"CC(C)OC(=O)N1CCN(c2cccc(S(C)(=O)=O)c2)CC1c1ccccc1 (stereo not drawn) [5-8, isopropyl 4-(3-(methylsulfonyl)phenyl)-2-phenylpiperazine-1-carboxylate]",19800 nM,41%,> 20000 nM,–,–,–,–,–,–
"CS(=O)(=O)c1cccc(N2CCN(Cc3ccccc3)C(c3ccccc3)C2)c1 (stereo not drawn) [46-4, 1-benzyl-4-(3-(methylsulfonyl)phenyl)-2-phenylpiperazine]",875 nM,41%,> 20000 nM,–,–,–,–,–,–
"CS(=O)(=O)c1cccc(N2CCN(Cc3cccc(C(F)(F)F)c3)C(c3ccccc3)C2)c1 (stereo not drawn) [46-13, 4-(3-(methylsulfonyl)phenyl)-2-phenyl-1-(3-(trifluoromethyl)benzyl)piperazine]",1900 nM,28%,> 20000 nM,–,–,–,–,–,–
"CC(C)[C@@H]1CN(c2ccc(C#N)c(S(C)(=O)=O)c2)CCN1c1cccc(C(F)(F)F)n1 [7-38, (R)-4-(3-isopropyl-4-(6-(trifluoromethyl)pyridin-2-yl)piperazin-1-yl)-2-(methylsulfonyl)benzonitrile]",3150 nM,204%,2960 nM,2960 (86) %,–,–,–,–,–
"CC(C)(C)OC(=O)N1CCN(c2cccc(S(C)(=O)=O)c2)C[C@H]1C(C)(C)O [6-1, tert-butyl (S)-2-(2-hydroxypropan-2-yl)-4-(3-(methylsulfonyl)phenyl)piperazine-1-carboxylate]",> 50000 nM,–,–,–,> 20000 nM,–,–,–,–
"CC(C)COC(=O)N1CCN(c2cccc(S(C)(=O)=O)c2)CC1c1ccccc1 (stereo not drawn) [5-5, isobutyl 4-(3-(methylsulfonyl)phenyl)-2-phenylpiperazine-1-carboxylate]",2500 nM,33%,3050 nM,3049 (6) %,–,–,–,–,–
"CS(=O)(=O)c1cccc(N2CCN(C[C@H]3CC[C@H](C(F)F)CC3)[C@H](c3ccccc3)C2)c1 (single isomer, unassigned) [48-18]",> 50000 nM,–,–,18796 (7) %,18800 nM,–,–,–,–
tert-butyl (S)-2-isobutyl-4-(3-(methylsulfonyl)phenyl)piperazine-1-carboxylate [1-2],6810 nM,55%,–,9219 (6) %,9220 nM,–,–,–,–
"Cc1cc(C)nc(N2CCN(c3cccc(S(C)(=O)=O)c3)C[C@H]2C(C)C)n1 [Cpd No 7-3, (R)-2-(2-isopropyl-4-(3-(methylsulfonyl)phenyl)piperazin-1-yl)-4,6-dimethylpyrimidine]",510 nM,36%,7920 nM,7923 (24) %,–,–,–,–,–
"COC(=O)c1ccc(N2CCN(Cc3ccc(C(F)(F)F)nc3)C(c3ccccc3)C2)cc1S(C)(=O)=O (stereo not drawn) [46-59, methyl 2-(methylsulfonyl)-4-(3-phenyl-4-((6-(trifluoromethyl)pyridin-3-yl)methyl)piperazin-1-yl)benzoate]",–,109%,–,–,–,–,–,–,–
"Cc1cc(CN2CCN(c3cccc(S(C)(=O)=O)c3)CC2c2ccccc2)cnc1C(F)(F)F (stereo not drawn) [46-48, 1-((5-methyl-6-(trifluoromethyl)pyridin-3-yl)methyl)-4-(3-(methylsulfonyl)phenyl)-2-phenylpiperazine]",–,47%,–,–,–,–,–,–,–
"CC(C)(C)OC(=O)N1CCN(c2cccc(S(C)(=O)=O)c2)CC1c1ccc(Br)cc1 (stereo not drawn) [1-12, tert-butyl 2-(4-bromophenyl)-4-(3-(methylsulfonyl)phenyl)piperazine-1-carboxylate]",–,46%,–,–,–,–,–,–,–
"CNS(=O)(=O)c1cc(N2CCN(c3ncc(C(=O)OC)c(C(F)(F)F)n3)[C@H](C(C)C)C2)ccc1F [9-6, methyl (R)-2-(4-(4-fluoro-3-(N-methylsulfamoyl)phenyl)-2-isopropylpiperazin-1-yl)-4-(trifluoromethyl)pyrimidine-5-carboxylate]",–,–,503 nM,503 (59) %,–,74 nM,101 nM,8 nM,Cell LXRβ efficacy [3]: 74 (41) %
"CC(C)[C@@H]1CN(c2ccc(Cl)c(S(C)(=O)=O)c2)CCN1c1ncc(CO)c(C(F)(F)F)n1 [11-3, (R)-(2-(4-(4-chloro-3-(methylsulfonyl)phenyl)-2-isopropylpiperazin-1-yl)-4-(trifluoromethyl)pyrimidin-5-yl)methanol]",–,–,–,1014 (62) %,1010 nM,95 nM,146 nM,6 nM,Cell LXRβ efficacy ([3]; agonist mode): 95 (44) %
"CC(C)(O)c1cnc(N2CCN(c3ccc(F)c(S(C)(=O)=O)c3)CC2C(C)(C)C)nc1C(F)(F)F (stereo not drawn) [10-4, 2-(2-(2-(tert-butyl)-4-(4-fluoro-3-(methylsulfonyl)phenyl)piperazin-1-yl)-4-(trifluoromethyl)pyrimidin-5-yl)propan-2-ol]",–,–,–,1034 (28) %,1030 nM,128 nM,59 nM,6 nM,Cell LXRβ efficacy ([3]; agonist mode): 128 (13) %
"CC(C)[C@@H]1CN(c2ccc(F)c(S(C)(=O)=O)c2)CCN1c1ncc(C(O)C(F)(F)F)cn1 (stereo partly drawn) [Cpd No 41-1, 2,2,2-trifluoro-1-(2-((R)-4-(4-fluoro-3-(methylsulfonyl)phenyl)-2-isopropylpiperazin-1-yl)pyrimidin-5-yl)ethan-1-ol]",–,–,–,3334 (36) %,3330 nM,305 nM,1120 nM,92 nM,Cell LXRβ efficacy [3]: 305 (19) %
"COCCCN(C)C(=O)c1cnc(N2CCN(c3ccc(F)c(S(C)(=O)=O)c3)C[C@H]2C(C)C)nc1C(F)(F)F [17-13, (R)-2-(4-(4-fluoro-3-(methylsulfonyl)phenyl)-2-isopropylpiperazin-1-yl)-N-(3-methoxypropyl)-N-methyl-4-(trifluoromethyl)pyrimidine-5-carboxamide]",–,–,> 20000 nM,–,–,> 20000 nM,2880 nM,253 nM,–
"C[C@](O)(c1ccc(CN2CCN(c3cccc(S(C)(=O)=O)c3)C[C@@H]2c2ccccc2)cc1)C(F)(F)F (single isomer, unassigned) [46-28]",–,–,–,4974 (24) %,4970 nM,1890 nM,3650 nM,–,Cell LXRβ efficacy ([3]; agonist mode): 1885 (16) %; Ki (LXR β LBD protein): 501 nM
"COC1CN(C(=O)c2cnc(N3CCN(c4ccc(F)c(S(C)(=O)=O)c4)C[C@H]3C(C)C)nc2C(F)(F)F)C1 [17-9, (R)-(2-(4-(4-fluoro-3-(methylsulfonyl)phenyl)-2-isopropylpiperazin-1-yl)-4-(trifluoromethyl)pyrimidin-5-yl)(3-methoxyazetidin-1-yl)methanone]",–,–,–,–,> 20000 nM,> 20000 nM,> 3330 nM,410 nM,–
"CC(C)[C@@H]1CN(c2ccc(F)c(S(C)(=O)=O)c2)CCN1c1ncc(C(=O)N(C)CCO)c(C(F)(F)F)n1 [17-7, (R)-2-(4-(4-fluoro-3-(methylsulfonyl)phenyl)-2-isopropylpiperazin-1-yl)-N-(2-hydroxyethyl)-N-methyl-4-(trifluoromethyl)pyrimidine-5-carboxamide]",–,–,–,–,> 20000 nM,> 20000 nM,> 3330 nM,–,Ki (LXR β LBD protein): 507 nM
"CC(C)[C@@H]1CN(c2cc(S(C)(=O)=O)c(C(N)=O)cc2Cl)CCN1c1nccc(C(F)(F)F)n1 [4-4, (R)-5-chloro-4-(3-isopropyl-4-(4-(trifluoromethyl)pyrimidin-2-yl)piperazin-1-yl)-2-(methylsulfonyl)benzamide]",–,–,2850 nM,2852 (7) %,–,1350 nM,> 3330 nM,1630 nM,–
"CC(C)[C@@H]1CN(c2ccc(CO)c(S(C)(=O)=O)c2)CCN1c1nc(C(F)(F)F)c(C(C)(C)O)o1 [26-2, (R)-2-(2-(4-(4-(hydroxymethyl)-3-(methylsulfonyl)phenyl)-2-isopropylpiperazin-1-yl)-4-(trifluoromethyl)oxazol-5-yl)propan-2-ol]",–,–,–,2233 (99) %,2230 nM,329 nM,1180 nM,72 nM,Cell LXRβ efficacy ([3]; agonist mode): 329 (74) %
"CC(C)[C@H]1CN(c2cccc(S(C)(=O)=O)c2)CCN1CC1CCC(C)(C)OC1 (stereo partly drawn) [51-3, (2S)-1-((6,6-dimethyltetrahydro-2H-pyran-3-yl)methyl)-2-isopropyl-4-(3-(methylsulfonyl)phenyl)piperazine]",–,–,–,3460 (51) %,–,590 nM,3170 nM,–,"Cell LXRβ efficacy [3, 5]: 590 (50) %; Ki (LXR β LBD protein; Biological Test Example 1, read-out: LXRβ Binding Ki): 482 nM; EC50 [2, 5]: 3460 nM"
